In article PMC6152666, “Five New Limonoids from Peels of Satsuma Orange (Citrus reticulata)” (Molecules : A Journal of Synthetic Chemistry and Natural …, 2017):
Entries after “also recorded” stand apart in the source; their conditions may differ.

What was measured:
[1] = tested on: NO production in RAW264.7 mouse macrophages stimulated by lipopolysaccharide (LPS); experiment: Inhibitory assay of NO production in LPS-stimulated RAW264.7 macrophages; assay type: cell-based; conditions: for activity at 1 µM / activity at 3 µM / activity at 10 µM / activity at 30 µM / IC50: Mus musculus; for activity at 1 µM / activity at 3 µM / activity at 10 µM / activity at 30 µM / IC50 / Inhibitory Ratio of NO % (produced NO ratio): RAW264.7 + LPS 5 μg/mL, 24 h; for activity at 1 µM / activity at 3 µM / activity at 10 µM / activity at 30 µM / Inhibitory Ratio of NO % (produced NO ratio): vehicle control = 100%, mean ± S.E., n=4; for activity at 1 µM / activity at 3 µM / activity at 10 µM: read-out: Inhibitory Ratio of NO %; for activity at 30 µM: read-out: Inhibitory Ratio of NO % (produced NO ratio); for activity at 30 µM / Inhibitory Ratio of NO % (produced NO ratio): 30 μM
Source text: Macrophages may be a potential therapeutic target for inflammatory diseases. Activated macrophages release pro-inflammatory mediators, such as NO, reactive oxygen species, interleukin-1β, tumor necrosis factor-α, and other inflammatory mediators, which play important roles in biological defense. However, the overexpression of these mediators had been implicated in diseases such as osteoarthritis, rheumatoid arthritis, and diabetes because the increased production of pro-inflammatory mediators induces severe or chronic inflammation. Isolated compounds (1–12), and N^G-monomethyl-L-arginine, acetate (L-NMMA), which is a NO synthase inhibitor and was used as a positive control, were evaluated for macrophage activation by the inhibitory assay of NO production in RAW264.7 mouse macrophages stimulated by lipopolysaccharide (LPS).
(§1) RAW264.7 cells were grown in D-MEM medium supplemented with 10% FBS and antibiotics (100 units/mL penicillin G sodium salt and 100 μg/mL streptomycin sulfate). Cells were incubated at 37 °C in a 5% CO2 humidified incubator.
An inhibitory assay of NO production was performed according to a method reported previously with slight modifications. Briefly, RAW264.7 cells (5 × 10^4 cells in 100 μL) were seeded into a 96-well microplate and incubated for 24 h. DMEM containing test samples (100 μL total volume, final concentration of 30, 10, 3, or 1 μM) dissolved in DMSO (final concentration 0.2%), and LPS (final concentration of 5 μg/mL), was added. After treatment for 24 h, the supernatant of culture medium was transferred to another 96-well microplate, and then 50 μL of 0.15% N-(1-naphtyl)ethylenediamine in H2O, and 1.5% sulfanilamide in 7.5% phosphoric acid were added. After incubation for 30 min, the absorbance of each well was read at 570 nm using a microplate reader. The optical density of vehicle control cells was assumed to be 100%.

[2] = Cytotoxicity assay (MTT) in RAW264.7 cells; assay type: cell-based, mouse; conditions: mouse, RAW264.7 cells, RAW264.7, MTT, 24 h, vehicle control = 100%, mean ± S.E., n=4, read-out: Cell Viability %
Procedure: as §1
(§2) Cytotoxicity assay was performed according to a method reported previously Briefly, RAW264.7 cells (5 × 10^4 cells in 100 μL) were seeded onto a 96-well microplate and incubated for 24 h. DMEM containing test samples (100 μL total volume, final concentration of 30, 10, 3, or 1 μM) dissolved in DMSO (final concentration 0.2%) was added. After treatment for 24 h, MTT solution was added. After a 3-h incubation, 20% sodium dodecyl sulfate in 0.1 M HCl was added to dissolve the formazan produced in the cells. The absorbance of each well was read at 570 nm using a microplate reader. The optical density of vehicle control cells was assumed to be 100%.

[3] = tested on: RAW264.7 cells; experiment: Cytotoxicity assay (MTT) in RAW264.7 cells; assay type: cell-based, mouse; conditions: RAW264.7, 1–30 μM
Procedure: as §1, §2

SMILES	activity at 1 µM [1]	activity at 3 µM [1]	activity at 10 µM [1]	activity at 30 µM [1]	IC50 [1]	melting point	viability at 24 h, 1 µM [2]	viability at 24 h, 3 µM [2]	viability at 24 h, 10 µM [2]	viability at 24 h, 30 µM [2]	inhibitory effect on NO production (in words) ([1]; RAW264.7 + LPS, 1–30 μM)	cytotoxicity (in words) [3]	Inhibitory Ratio of NO % (produced NO ratio) [1]
CC(=O)O[C@H]1CC(=O)OC(C)(C)[C@@H]2CC(=O)[C@]3(C)[C@H](CC[C@@]4(C)[C@H](C5=CC(=O)OC5O)OC(=O)[C@H]5O[C@]543)[C@@]12C (stereo partly drawn) [Compound 1, 21,23-dihydro-21-hydroxy-23-oxonomilin]	110 ± 2.8%	111 ± 1.7%	105 ± 2.2%	107 ± 2.5%	> 30 µM	200 to 201 °C	99.1%	102%	104%	99.3%			
COC1C=C([C@@H]2OC(=O)[C@H]3O[C@@]34[C@@]2(C)CC[C@@H]2[C@@]3(C)[C@@H](OC(C)=O)CC(=O)OC(C)(C)[C@@H]3CC(=O)[C@]24C)C(=O)O1 (stereo partly drawn) [Compound 2, 21,23-dihydro-23-methoxy-21-oxonomilin]	95.2 ± 1.6%	89.8 ± 2.1%	80.4 ± 2.1%	39.3 ± 0.5%	25.4 µM	208 to 210 °C	101%	98.7%	99.1%	94.5%	exhibited NO inhibitory activity	without cytotoxicity; also recorded: without cytotoxicities	
COC(=O)CC(OC(C)=O)C1(C)C(C(C)(C)O)CC(=O)C2(C)C1CCC1(C)C(C3=CC(=O)OC3O)OC(=O)C3OC312 (stereo not drawn) [Compound 3, 21,23-dihydro-21-hydroxy-23-oxonomilinic acid methyl ester]	99.4 ± 0.8%	99.4 ± 2.3%	94.1 ± 1.9%	80.3%	> 30 µM		96.8%	94.5%	93.2%	93.4%			80.3 ± 1.2 %
COC1C=C([C@@H]2OC(=O)[C@H]3O[C@@]34[C@@]2(C)CC[C@@H]2[C@@]35COC(=O)C[C@@H]3OC(C)(C)[C@@H]5CC(=O)[C@]24C)C(=O)O1 (stereo partly drawn) [Compound 4, 21,23-dihydro-23-methoxy-21-oxolimonin]	96.2 ± 7.9%	94 ± 2.7%	101 ± 1.2%	95.2 ± 3.4%	> 30 µM		103%	97%	95.1%	91.7%			
CC1(C)O[C@H]2CC(=O)OC[C@]23[C@H]2CC[C@@]4(C)[C@H](C5=CCOC5=O)OC(=O)[C@H]5O[C@]54[C@]2(C)C(=O)C[C@@H]13 [Compound 5, 21,23-Dihydro-21-oxolimonin]	99.5 ± 5.6%	101 ± 4.7%	93.8 ± 1.6%	83.2%	> 30 µM		97.9%	97.9%	99.5%	96.6%			83.2 ± 5.6 %
CC1(C)O[C@H]2CC(=O)OC[C@]23[C@H]2CC[C@@]4(C)[C@H](c5ccoc5)OC(=O)[C@H]5O[C@]54[C@]2(C)C(=O)C[C@@H]13 [Compound 6, limonin]	102 ± 4.4%	93.4 ± 5.7%	90.9 ± 3.1%	86 ± 5.5%	> 30 µM		100%	95.6%	97.2%	99.3%			
CC1(C)O[C@H]2CC(=O)OC[C@]23[C@H]2CC[C@@]4(C)[C@H](C5=CC(=O)OC5O)OC(=O)[C@H]5O[C@]54[C@]2(C)C(=O)C[C@@H]13 (stereo partly drawn) [Compound 7, shihulimonin A]	99.8 ± 1.4%	99 ± 3%	96.8 ± 2.5%	93.9 ± 4%	> 30 µM		102%	106%	104%	100%			
CC1(C)O[C@H]2CC(=O)OC[C@]23[C@H]2CC[C@@]4(C)[C@H](C5=CC(O)OC5=O)OC(=O)[C@H]5O[C@]54[C@]2(C)C(=O)C[C@@H]13 (stereo partly drawn) [Compound 8, limonexic acid]	97.2 ± 1.1%	94.7 ± 2.4%	90.9 ± 1.6%	76%	> 30 µM		98.1%	97.6%	92%	89.3%			76.0 ± 2.2 %
COC1OC(OC)C2(C3OC(=O)C4OC45C3(C)CCC3C46COC(=O)CC4OC(C)(C)C6CC(=O)C35C)OC12 (stereo not drawn) [Compound 9, evolimorutanin]	94.3 ± 4.3%	85.2 ± 6.4%	91.3 ± 2.8%	89.9 ± 3.2%	> 30 µM		101%	97.7%	101%	97.6%			
CC1(C)OC(=O)C=C[C@]2(C)[C@H]3CC[C@@]4(C)[C@H](C5=CC(=O)OC5O)OC(=O)[C@H]5O[C@]54[C@]3(C)C(=O)C[C@@H]12 (stereo partly drawn) [Compound 10, kihadanin A]	95 ± 4.2%	96.8 ± 1.3%	97.7 ± 2.2%	86.6 ± 1.6%	> 30 µM		105%	102%	98.9%	98.6%			
CC1(C)OC(=O)C[C@H](O)[C@]2(C)[C@H]3CC[C@@]4(C)[C@H](c5ccoc5)OC(=O)[C@H]5O[C@]54[C@]3(C)C(=O)C[C@@H]12 [Compound 11, deacetylnomilin]	104 ± 3.1%	93.2 ± 3.2%	84.7 ± 3.2%	78.1%	> 30 µM		95.9%	100%	99.3%	100%			78.1 ± 3.4 %
CC(C)(O)[C@@H]1CC(=O)[C@]2(C)[C@H](CC[C@@]3(C)[C@H](c4ccoc4)OC(=O)[C@H]4O[C@]432)[C@]12COC(=O)C[C@@H]2O [Compound 12, ichangin]	107 ± 4.1%	92.6 ± 3.2%	88.4 ± 5.5%	73.9%	> 30 µM		101%	98.1%	98.3%	98.3%			73.9 ± 3.4 %
[H]/N=C(/NC)NCCC[C@H](N)C(=O)O [L-NMMA, N^G-monomethyl-L-arginine, acetate, reference compound]	93.3 ± 2.2%	91.4 ± 0.8%	68.9 ± 4.5%	43.1 ± 1.1%	23.9 µM		102%	102%	98.5%	109%			
